From patent publication US20200155687A1, “METHODS OF TREATMENT USING AN A[…]” (Shire Pharmaceuticals Inc., priority 2017, published 2020) come the findings set out here.

One series has as its system rats. As to the kind of experiment: motor activity in rats after PO, IV or IN administration. Type of series: in vivo. Particulars: rat; for increase in activity: IV; for activity levels compared to controls: single IN dose. Here is the method:
The pharmacodynamic properties of 1-homoarginine-d-amphetamine dihydrochloride in rats were evaluated and compared to lisdexamfetamine dimesylate and vehicle control after oral (PO), intravenous (IV) and intranasal (IN) administration.
The activity levels of rats after a single IN dose of 1-homoarginine-d-amphetamine dihydrochloride (5.25 mg/kg) was not increased when compared to controls.

The target of series [1] is human recombinant norepinephrine transporter (Homo sapiens, UniProt P23975). As to the kind of experiment: in vitro radioligand binding study, norepinephrine transporter. The conditions noted are these: intact prodrug, up to 10 μM. The text has this:
(§1) Therefore, there is no direct interaction by 1-homoarginine-d-amphetamine dihydrochloride with primary targets critical for the pharmacological effects of d-amphetamine.

For series [2], the target named is human recombinant dopamine transporter (Homo sapiens, UniProt Q01959). Briefly: in vitro radioligand binding study, dopamine transporter. Particulars: intact prodrug, up to 10 μM.
Source text: as §1

The test system of series [3] is α2-adrenergic receptor. Briefly: confirmatory half maximal inhibitory concentration (IC50) assay. Type of series: binding. Particulars: after completion of confirmatory IC50 assay. Here is the method:
(§2) In a general side-effect profile panel using a wide range of receptors, transporters, ion channels, enzymes and other biological targets that could directly or indirectly influence dopaminergic or noradrenergic neurotransmission in the brain, initial results indicated some 1-homoarginine-d-amphetamine dihydrochloride activity at the α2-adrenergic receptor. However, after completion of a confirmatory half maximal inhibitory concentration (IC50) assay, it was determined that it is unlikely that 1-homoarginine-d-amphetamine dihydrochloride would cause any side-effects related to any of the common enzymes/receptors.

Series [4] has as its system α2-adrenergic receptor. Briefly: general side-effect profile panel (receptors, transporters, ion channels, enzymes). The format is binding. Here is the method:
as §2

human recombinant norepinephrine transporter, sequence (P23975 whole entry): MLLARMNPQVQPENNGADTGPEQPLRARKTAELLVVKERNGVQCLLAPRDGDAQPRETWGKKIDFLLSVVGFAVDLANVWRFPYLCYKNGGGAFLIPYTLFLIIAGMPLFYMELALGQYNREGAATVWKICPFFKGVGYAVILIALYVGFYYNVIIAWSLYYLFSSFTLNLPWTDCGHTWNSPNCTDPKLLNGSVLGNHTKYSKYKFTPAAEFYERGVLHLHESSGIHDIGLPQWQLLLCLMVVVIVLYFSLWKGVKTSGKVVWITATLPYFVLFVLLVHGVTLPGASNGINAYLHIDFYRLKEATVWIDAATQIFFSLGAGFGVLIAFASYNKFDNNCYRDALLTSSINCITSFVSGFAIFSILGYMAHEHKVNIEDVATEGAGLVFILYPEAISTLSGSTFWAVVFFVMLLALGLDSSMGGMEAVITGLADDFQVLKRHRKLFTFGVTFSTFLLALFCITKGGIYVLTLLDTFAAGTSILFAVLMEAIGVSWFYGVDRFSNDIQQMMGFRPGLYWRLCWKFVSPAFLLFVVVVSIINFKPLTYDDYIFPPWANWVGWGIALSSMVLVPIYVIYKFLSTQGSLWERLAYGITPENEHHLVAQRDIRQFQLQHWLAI
human recombinant dopamine transporter, sequence (Q01959 whole entry): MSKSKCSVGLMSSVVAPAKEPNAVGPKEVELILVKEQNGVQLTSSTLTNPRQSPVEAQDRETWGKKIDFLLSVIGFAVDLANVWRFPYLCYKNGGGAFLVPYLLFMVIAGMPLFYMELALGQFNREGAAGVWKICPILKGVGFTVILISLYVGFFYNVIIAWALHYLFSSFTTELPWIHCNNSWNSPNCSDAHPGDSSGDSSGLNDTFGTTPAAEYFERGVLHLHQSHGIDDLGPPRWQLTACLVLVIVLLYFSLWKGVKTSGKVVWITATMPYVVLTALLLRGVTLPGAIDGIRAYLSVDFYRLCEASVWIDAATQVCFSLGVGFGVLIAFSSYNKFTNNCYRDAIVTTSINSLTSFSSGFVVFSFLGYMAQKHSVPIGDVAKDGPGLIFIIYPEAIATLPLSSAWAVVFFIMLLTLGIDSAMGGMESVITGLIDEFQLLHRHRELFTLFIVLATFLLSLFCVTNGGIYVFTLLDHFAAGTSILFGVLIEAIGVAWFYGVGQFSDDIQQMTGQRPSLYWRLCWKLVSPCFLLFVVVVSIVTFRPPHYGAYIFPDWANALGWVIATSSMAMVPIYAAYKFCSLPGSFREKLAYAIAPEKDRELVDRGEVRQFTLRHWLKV

`C[C@@H](Cc1ccccc1)NC(=O)[C@@H](N)CCCCNC(=N)N.Cl` [1-homoarginine-d-amphetamine dihydrochloride]: in the series on rats (5.25 mg/kg), the increase in activity entry is reported as “approximately 15%” and the “activity levels compared to controls” value is reported as “not increased”. Moreover, the “motor activity compared to the vehicle control group” value in the series on rats (PO, 4.37 mg/kg) was “induced an increase in motor activity”. Moreover, in the series on rats (PO, 4.37 mg/kg, initial three hours of the study), the “activity levels versus lisdexamfetamine (4.21 mg/kg) comparator group” value was “in general lower”. Besides, the “activity at the norepinephrine transporter site” value in series [1] is “no significant activity”. For the same molecule, the “activity at the dopamine transporter site” value in series [2] was “no significant activity”. Moreover, in the series with α2-adrenergic receptor [3], the “likelihood of side-effects related to any of the common enzymes/receptors” value is “unlikely”. Further, in the series on α2-adrenergic receptor [4], the “activity at the α2-adrenergic receptor (initial results)” value is “some”.
Regarding “lisdexamfetamine dimesylate [reference compound]”, in the series on rats (5.05 mg/kg), the increase in activity was 60% and the “activity levels compared to controls” value was “A similar result”.
